Consider 69 molecules from PubChem BioAssay AID1208 (EPA DSSTox, 2008).

Active and inactive are the calls of the source.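 The calls were made as follows: active = at least one rat sex group has a carcinogenic potency value and tumor site recorded; inconclusive = only rat studies were judged inadequate by the national testing program; inactive = no potency or tumor site, with negative rat experiments.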

The test system of this series is rat chronic carcinogenicity bioassay, TD50. Nature of the series: DSSTox (CPDBAS) Carcinogenic Potency Database Summary Rat Bioassay Results. Conditions: for Potency: stronger effect = lower value. The gist of the method:
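The activity score maps log10(1/TD50_Rat_mmol) linearly onto 1–100; actives without a computed TD50, such as mixtures, receive 50. Source data are chronic rat carcinogenicity tests, using the most positive experiment for each sex.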

The mark [1] stands for this setting: TD50_Rat_Note: no positive results, TargetSites_Rat_Female: no positive results.
The mark [2] stands for this setting: TD50_Rat_Note: no positive results.
Setting [3] is: TargetSites_Rat_Female: mammary gland.
The mark [4] stands for this setting: TD50_Rat_Note: TD50 is harmonic mean of more than one positive test, TargetSites_Rat_Female: liver.
[5] abbreviates: TD50_Rat_Note: TD50 is harmonic mean of more than one positive test, TargetSites_Rat_Female: thyroid gland.

For `C[C@@H]1CC2(O[C@@H]2C)C(=O)O[C@@H]2CCN(C)C/C=C(/COC(=O)[C@]1(C)O)C2=O` (some centres undefined), the Potency (TD50_Rat_Note: TD50 is harmonic mean of more than one positive test, TargetSites_Rat_Female: liver, vascular system) is 0.922 mg/kg/day.
As for `CC(C)(C)NC[C@H](O)COc1cccc2c1CCCC2=O`, under setting [1], the outcome was “inactive; no positive results”.
For `O=C(O)C(Cl)Cl`, the Potency (TD50_Rat_Note: TD50 is harmonic mean of more than one positive test) was 161 mg/kg/day.
As for `Cc1ccc(O)c(O)c1`, the Potency (TD50_Rat_Note: TD50 is harmonic mean of more than one positive test, harmonic mean of TD50 includes a value for upper 99% confidence li, TargetSites_Rat_Female: stomach) is 248 mg/kg/day.
Turning to `O=[N+]([O-])c1ccc2nc[nH]c2c1`, the outcome under setting [1] was “inactive; no positive results”.
On to `CC(C)CCCCCCOC(=O)c1ccccc1C(=O)OCCCCCCC(C)C`, for which, for the setting “TD50_Rat_Note: TD50 is harmonic mean of more than one positive test, TD50_Rat_mmol was not calculated for this mixture, but Activiity S, TargetSites_Rat_Female: hematopoietic system, liver”, the Potency is 861 mg/kg/day.
For the molecule `Nc1ccccc1C(=O)O`, the outcome under setting [1] was “inactive; no positive results”.
Consider `CCCCCCCN`, for which the outcome under setting [2] is “inactive; no positive results”.
With `CC1CN(/N=C/c2ccc([N+](=O)[O-])o2)C(=O)N1` (centres undefined), under setting [3], the Potency was 5.34 mg/kg/day.
`CC(=O)Nc1ccc(S(=O)(=O)c2ccc(NC(C)=O)cc2)cc1`: under “TD50_Rat_Note: no positive results are statistically significant, TargetSites_Rat_Female: mammary gland”, the Potency is 55.6 mg/kg/day.
`CC(C)(Oc1ccc(C2CCCc3ccccc32)cc1)C(=O)O` (centres undefined): under “TD50_Rat_Note: TD50 is harmonic mean of more than one positive test, greater than ten-fold variation among TD50 values for positive res, TargetSites_Rat_Female: liver”, the Potency is 11 mg/kg/day.
Regarding `Cn1nc(CO)nc1NCCCOc1cccc(CN2CCCCC2)c1`, where the note is “TD50_Rat_Note: TD50 is harmonic mean of more than one positive test, TargetSites_Rat_Female: stomach”, the Potency is 479 mg/kg/day.
Turning to `CCOP(=S)(OCC)Oc1ccc2c(C)c(Cl)c(=O)oc2c1`, the outcome under setting [1] is “inactive; no positive results”.
With `[Na+]`, the outcome under setting [2] was “inactive; no positive results”.
As for `NC(=O)Cc1c([O-])on[n+]1Cc1ccccc1`, the Potency was 4.24 mg/kg/day.
On to `CCCCCCc1ccc(O)cc1O`, for which the outcome under setting [1] was “inactive; no positive results”.
Turning to `O.O.O.O.O.O.O.O=S(=O)([O-])[O-].[Co+2]`, the Potency (TD50_Rat_Note: TD50 is harmonic mean of more than one positive test, TargetSites_Rat_Female: adrenal gland, lung) was 0.137 mg/kg/day.
For the molecule `CC[C@H]1CN2CCc3cc(OC)c(OC)cc3[C@@H]2C[C@@H]1C[C@H]1NCCc2cc(OC)c(OC)cc21`, where the note is “TD50_Rat_Note: only experiment is NCI/NTP bioassay inadequate, TargetSites_Rat_Female: NTP bioassay inadequate”, the outcome is “ntp bioassay inadequate”.
Take `COc1cccc2c1cc([N+](=O)[O-])c1c(C(=O)O)cc3c(c12)OCO3`: the Potency (TD50_Rat_Note: TD50 is harmonic mean of more than one positive test, TD50_Rat_mmol was not calculated for this mixture, but Activiity S, TargetSites_Rat_Female: stomach) is 0.0141 mg/kg/day.
Take `NNc1nc(-c2ccccc2)cs1`: the outcome under setting [1] was inactive.
As to `N#Cc1ccc(C2CCCc3cncn32)cc1` (centres undefined), the outcome under setting [1] is “inactive; no positive results”.
Same read-out and setting: the value for `C=C(F)F` was “inactive; no positive results”.
Regarding `NCC(=O)O`, under “TargetSites_Rat_Female: kidney”, the Potency is 25700 mg/kg/day.
For `COC(=O)C1=C(C)NC(C)=C(C(=O)OCC(C)(C)CN(C)Cc2ccccc2)C1c1cc([N+](=O)[O-])ccc1F` (centres undefined), the outcome under setting [1] is “inactive; no positive results”.
For `CNC(=S)NC`, the outcome under setting [2] is “inactive; no positive results”.
For the molecule `Cc1cc(Cc2cc(C)cc(C(C)(C)C)c2O)c(O)c(C(C)(C)C)c1`, the outcome under setting [1] was “inactive; no positive results”.
As for `CCCCCl`, the outcome under setting [1] was “inactive; no positive results”.
In the case of `Clc1ccc2c(c1)Oc1ccc(Cl)cc1O2`, under setting [1], the outcome is “inactive; no positive results”.
`NNc1nc(-c2ccc([N+](=O)[O-])cc2)cs1`: for the setting “TD50_Rat_Note: TD50 is harmonic mean of more than one positive test, TargetSites_Rat_Female: mammary gland”, the Potency was 3.21 mg/kg/day.
`ClC(Cl)=C(Cl)Cl`: where the note is “TD50_Rat_Note: TD50 is harmonic mean of more than one positive test, TargetSites_Rat_Female: hematopoietic system”, the Potency was 145 mg/kg/day.
Take `CCCCC(CC)COC(=O)CCCCC(=O)OCC(CC)CCCC` (centres undefined): the outcome under setting [1] is “inactive; no positive results”.
Take `CC[C@H](C)C(=O)O[C@H]1C[C@@H](C)C=C2C=C[C@H](C)[C@H](CC[C@@H]3C[C@@H](O)CC(=O)O3)[C@H]21`: the outcome under setting [1] was “inactive; no positive results”.
Turning to `CCN(C=O)CC`, the outcome under setting [2] is “inactive; no positive results”.
Regarding `OC[C@H]1O[C@@H]2O[C@H]3[C@H](O)[C@@H](O)[C@@H](O[C@H]4[C@H](O)[C@@H](O)[C@@H](O[C@H]5[C@H](O)[C@@H](O)[C@@H](O[C@H]6[C@H](O)[C@@H](O)[C@@H](O[C@H]7[C@H](O)[C@@H](O)[C@@H](O[C@H]8[C@H](O)[C@@H](O)[C@@H](O[C@H]1[C@H](O)[C@H]2O)O[C@@H]8CO)O[C@@H]7CO)O[C@@H]6CO)O[C@@H]5CO)O[C@@H]4CO)O[C@@H]3CO`, the outcome under setting [1] is “inactive; no positive results”.
`NC(=O)N/N=C/c1ccco1`: the result under setting [1] was inactive.
Consider `CCCCCN(N=O)C(=N)N[N+](=O)[O-]`, for which the outcome under setting [2] was “inactive; no positive results”.
Regarding `OCN(CO)c1nc(N(CO)CO)nc(N(CO)CO)n1`, the Potency (TargetSites_Rat_Female: kidney, mammary gland) is 10.2 mg/kg/day.
`C#C[C@]1(OC(C)=O)CC[C@H]2[C@@H]3CCC4=C[C@@H](OC(C)=O)CC[C@@H]4[C@H]3CC[C@@]21C`: under setting [1], the outcome was inactive.
For `N#[N+]c1cc(CCN)ccc1[O-]`, the Potency was 37.6 mg/kg/day.
With `CC(C)n1c(/C=C/[C@@H](O)C[C@@H](O)CC(=O)O)c(-c2ccc(F)cc2)c2ccccc21`, the Potency (TargetSites_Rat_Female: no positive results) was 125 mg/kg/day.
For the molecule `Nc1ccc(-c2ccccc2)cc1`, under setting [3], the Potency is 0.98 mg/kg/day.
As to `S=C1NCCN1`, the Potency (TD50_Rat_Note: TD50 is harmonic mean of more than one positive test, greater than ten-fold variation among TD50 values for positive res, TargetSites_Rat_Female: thyroid gland, TargetSites_Rat_BothSexes: liver) is 8.13 mg/kg/day.
Take `N[C@@H](CCC(=O)O)C(=O)O`: the outcome under setting [1] is “inactive; no positive results”.
On the same count and under the same terms, to `Nc1ccc([N+](=O)[O-])cc1` belongs “inactive; no positive results”; to `O=[O+][O-]`, “inactive; no positive results”.
Turning to `C[C@]12CC[C@H](O)CC1=CC[C@@H]1[C@@H]2CC[C@]2(C)C(=O)CC[C@@H]12`, the Potency under setting [4] was 83.5 mg/kg/day.
In the case of `CCCCCCCCS(=O)C(C)Cc1ccc2c(c1)OCO2` (centres undefined), under setting [1], the outcome is “inactive; no positive results”.
For the molecule `CCSCC[C@H](N)C(=O)O`, for the setting “TD50_Rat_Note: TD50 value is overestimated as upper 99% confidence limit from study with 100% tumor incidence but no lifetable, harmoni”, the Potency is 4.97 mg/kg/day.
For `CC(=O)Nc1ccc(S(=O)(=O)O)c2cc(S(=O)(=O)O)c(N=Nc3ccc(N=Nc4ccc(S(=O)(=O)O)cc4)c4ccc(S(=O)(=O)O)cc34)c(O)c12`, the outcome under setting [1] is “inactive; no positive results”.
Regarding `Nc1ccccc1N`, the Potency was 248 mg/kg/day.
Regarding `O=C1CN=C(c2ccccc2)c2cc(Cl)ccc2N1CC1CC1`, the outcome under setting [1] was “inactive; no positive results”.
For `C=CC1=C(C)C2=CC3=NC(=C(CC(=O)[O-])C4=NC(=C(C)C4=C([O-])[O-])C=c4[n-]c(c(C)c4CC)=CC1=N2)[C@@H](CCC(=O)[O-])[C@@H]3C.[Cu+2].[Na+].[Na+].[Na+]`, the outcome under setting [1] was “inactive; no positive results”.
In the case of `CN(CCO)N=O`, the Potency was 1.29 mg/kg/day.
Turning to `CCOC(=O)[C@]1(c2ccccc2)CCC=C[C@H]1N(C)C`, under setting [1], the outcome was “inactive; no positive results”.
Consider `NC(=O)CI`, for which the outcome under setting [2] is “inactive; no positive results”.
For `O=[N+]([O-])c1ccc(-c2nc(N(CCO)CCO)c3ccccc3n2)s1`, the Potency is 3.14 mg/kg/day.
As for `O=C(Nc1cccc2c(=O)cc(-c3nn[nH]n3)oc12)c1ccc(OCCCCc2ccccc2)cc1`, under setting [1], the outcome was “inactive; no positive results”.
As for `CCC1(c2ccccc2)C(=O)NC(=O)NC1=O`, the outcome under setting [1] is “inactive; no positive results”.
With `COC(=O)C(C)(C)Oc1ccc(-c2ccc(Cl)cc2)cc1`, the Potency (TD50_Rat_Note: TD50 is harmonic mean of more than one positive test, harmonic mean of TD50 includes a value for upper 99% confidence li, TargetSites_Rat_Female: liver) was 4.78 mg/kg/day.
`O=C(O)COc1ccc(Cl)cc1Cl`: under setting [1], the outcome was “inactive; no positive results”.
For `Cc1nc(N)cc2[nH]c3ccccc3c12`, the Potency (TD50_Rat_Note: TD50 is harmonic mean of more than one positive test, TargetSites_Rat_Female: clitoral gland, hematopoietic system, liver, mammary gland, small intestine, vascular system) was 6.66 mg/kg/day.
Regarding `O=NN(CCO)CC(O)CO` (centres undefined), the Potency (TargetSites_Rat_Female: liver) is 5.98 mg/kg/day.
On to `O=c1cc[nH]c(=S)[nH]1`, for which the Potency under setting [5] is 11.9 mg/kg/day.
On to `NC(N)=S`, for which the Potency (TD50_Rat_Note: TD50 is harmonic mean of more than one positive test, TargetSites_Rat_Female: no positive results) was 98.5 mg/kg/day.
For `S=[Se]`, the Potency under setting [4] is 8.01 mg/kg/day.
Consider `O=C(N[C@H](CO)[C@H](O)c1ccc([N+](=O)[O-])cc1)C(Cl)Cl`, for which the outcome under setting [1] was inactive.
Same read-out and setting: the value for `CNC[C@H](O)c1cccc(O)c1` was “inactive; no positive results”.
For the molecule `Cn1cc[nH]c1=S`, the Potency under setting [5] was 1.14 mg/kg/day.
Regarding `O=NN1CCCCC1c1cccnc1` (centres undefined), the Potency (TD50_Rat_Note: TD50 is harmonic mean of more than one positive test, TargetSites_Rat_Female: esophagus) was 11.9 mg/kg/day.
